Measurements published in PMC5863483, “Low HLA binding of diabetes-associated CD8+ T-cell epitopes is increased by post translational modifications” (BMC Immunology, 2018).
Like-named read-outs stand apart in the source and are kept apart here. Each block holds one molecule with its values, some of them ahead of it. *1 amine or outer side, *2 acyl side, *3 side chain or, on linkers, in order; H or OH if unused. Where a SMILES comes first, the peptide text is derived from it. Where no end group is shown, it is not given here. [ ]: non-standard residue; d: D form. γGlu = O=C(O)[C@H](CCC(=O)[*:2])N[*:1]; βAsp = O=C(O)[C@H](CC(=O)[*:2])N[*:1]; Cya = N[C@@H](CS(=O)(=O)O)C(=O)O; Cit = NC(=O)NCCC[C@H](N)C(=O)O

Biological target: HLA-A*02:01 (Homo sapiens, UniProt P04439, D140Y/D185E/D98H/E176V/E277Q/G131W/G231S/I119V/I121R/I166T/I218V/L300P/L318F/N151K/N90K/P208A/P217A/Q86G/Q94H/R138H/R169H/T345S)
Experiment: HLA-peptide competition binding assay, A*02:01
[1] = read-out: IC50 nM, target assay A*02:01
[2] = read-out: A*02:01 binding (IC50 nM) WT
[3] = post-translationally modified insulin peptide, competition binding assay, a dash indicates IC50 >40,000 nM, read-out: A*02:01 binding (IC50 nM) Modified
[4] = unmodified (WT) insulin peptide, competition binding assay, a dash indicates IC50 >40,000 nM, read-out: A*02:01 binding (IC50 nM) WT
[5] = unmodified (wild type) insulin-derived peptide, radiolabeled ligand competition, purified MHC, two-day incubation, three or more independent experiments, read-out: A*02:01 binding, WT
[6] = read-out: A*02:01 binding (IC50 nM) Modified

Molecule: LCGSHLVEA
IC50 [2]: 1350 nM

Molecule: NQHLCGSHL
IC50 [4]: > 40000 nM

Molecule: CSCC[C@H](NC(=O)[C@H](Cc1c[nH]c2ccccc12)NC(=O)[C@H](CC(C)C)NC(=O)[C@H](C)NC(=O)[C@@H](N)CCSC)C(=O)N[C@@H](CCCNC(N)=O)C(=O)N[C@@H](CC(C)C)C(=O)N[C@@H](CC(C)C)C(=O)N1CCC[C@H]1C(=O)N[C@@H](CC(C)C)C(=O)O (H-MALWM[Cit]LLPL-OH)
IC50: 262 nM

Molecule: CC(C)C[C@H](NC(=O)[C@H](Cc1c[nH]cn1)NC(=O)CC[C@H](N)C(=O)O)C(=O)N[C@@H](CS)C(=O)NCC(=O)N[C@@H](CO)C(=O)N[C@@H](Cc1c[nH]cn1)C(=O)N[C@@H](CC(C)C)C(=O)N[C@H](C(=O)N[C@@H](CCC(=O)O)C(=O)O)C(C)C [ZHLCGSHLVE] (γGlu-HLCGSHLVE-OH; N-terminus and C-terminus assumed)
IC50 [3]: > 40000 nM

Molecule: KCQEVLAWL [reference compound]
IC50 [1]: > 40000 nM

Molecule: FLIVLSVAL [FLIVLSVAL, reference compound]
IC50 [1]: 26 nM

Molecule: LCGSHLVEAL [LCGSHLVEAL, reference compound]
IC50 [1]: > 40000 nM
IC50 [4]: > 40000 nM

Molecule: QHLCGSHLV
IC50 [4]: > 40000 nM
IC50 [5]: > 40000 nM

Molecule: FLQDVMNIL [reference compound]
IC50 [1]: 70 nM

Molecule: RLQREWHTL [reference compound]
IC50 [1]: 1230 nM

Molecule: MALWMRLLP
IC50 [5]: 4540 nM

Molecule: C[C@@H](O)[C@H](NC(=O)[C@H](CCCCN)NC(=O)[C@@H]1CCCN1C(=O)[C@@H](NC(=O)[C@H](Cc1ccc(O)cc1)NC(=O)[C@H](Cc1ccccc1)NC(=O)[C@H](Cc1ccccc1)NC(=O)CNC(=O)[C@@H](N)CCCNC(N)=O)[C@@H](C)O)C(=O)O
IC50: 27300 nM

Molecule: KTRREAEDL
IC50 [4]: > 40000 nM

Molecule: MVWESGCTV [reference compound]
IC50 [1]: 126 nM

Molecule: EALYLVCGER
IC50 [5]: 10100 nM

Molecule: CSCC[C@H](NC(=O)[C@@H](N)Cc1c[nH]c2ccccc12)C(=O)N[C@@H](CCCNC(N)=O)C(=O)N[C@@H](CC(C)C)C(=O)N[C@@H](CC(C)C)C(=O)N1CCC[C@H]1C(=O)N[C@@H](CC(C)C)C(=O)N[C@@H](CC(C)C)C(=O)N[C@@H](C)C(=O)N[C@@H](CC(C)C)C(=O)O [WMULLPLLAL] (H-WM[Cit]LLPLLAL-OH)
IC50: 310 nM

Molecule: VEALYLVCG
IC50 [2]: 14300 nM

Molecule: SLTTISTTL [reference compound]
IC50: 237 nM

Molecule: STVASWLGPV [reference compound]
IC50 [1]: 9230 nM

Molecule: FVDEHLCGS
IC50 [3]: > 40000 nM

Molecule: C[C@@H](O)[C@H](NC(=O)[C@H](Cc1ccc(O)cc1)NC(=O)[C@H](Cc1ccc(O)cc1)NC(=O)[C@H](Cc1ccc(O)cc1)NC(=O)CNC(=O)[C@H](CCCNC(=N)N)NC(=O)[C@H](CCC(=O)O)NC(=O)CNC(=O)[C@@H](N)CS(=O)(=O)O)C(=O)O [BGERGYYYT] (H-[Cya]GERGYYYT-OH; N-terminus and C-terminus assumed)
IC50 [3]: > 40000 nM

Molecule: C[C@@H](O)[C@H](NC(=O)[C@H](CCCCN)NC(=O)[C@@H]1CCCN1C(=O)[C@@H](NC(=O)[C@H](Cc1ccc(O)cc1)NC(=O)[C@H](Cc1ccccc1)NC(=O)[C@H](Cc1ccccc1)NC(=O)CNC(=O)[C@@H](N)CCCNC(=N)N)[C@@H](C)O)C(=O)N[C@@H](CCCNC(=N)N)C(=O)O
IC50 [4]: > 40000 nM

Molecule: CC(C)C[C@H](NC(=O)[C@H](Cc1ccc(O)cc1)NC(=O)[C@@H](N)CC(C)C)C(=O)N[C@H](C(=O)N[C@@H](CS)C(=O)NCC(=O)N[C@@H](CCC(=O)O)C(=O)N[C@@H](CCCNC(N)=O)C(=O)NCC(=O)O)C(C)C
IC50 (post-translationally modified insulin-derived peptide, radiolabeled ligand competition, purified MHC, two-day incubation, three or more independent experiments, read-out: A*02:01 binding, Modified): 12500 nM

Molecule: C[C@@H](O)[C@H](NC(=O)[C@H](CCCCN)NC(=O)[C@@H]1CCCN1C(=O)[C@@H](NC(=O)[C@H](Cc1ccc(O)cc1)NC(=O)[C@H](Cc1ccccc1)NC(=O)[C@H](Cc1ccccc1)NC(=O)CN)[C@@H](C)O)C(=O)N[C@@H](CCCNC(N)=O)C(=O)O
IC50: 38400 nM

The remaining lines, values ahead:

IC50 [1]: 1250 nM
Molecule: LASEKVYTI [reference compound]

IC50 [3]: > 40000 nM
Molecule: CC[C@H](C)[C@H](NC(=O)CNC(=O)[C@H](CCCNC(N)=O)NC(=O)[C@H](CCCCN)NC(=O)[C@H](CCC(N)=O)NC(=O)[C@@H](N)CC(C)C)C(=O)N[C@H](C(=O)N[C@@H](CCC(=O)O)C(=O)N[C@@H](CCC(N)=O)C(=O)N[C@@H](CS)C(=O)O)C(C)C (H-LQK[Cit]GIVEQC-OH; N-terminus and C-terminus assumed)

IC50 [1]: 5.8 nM
Molecule: GLLQVHHSCPL [reference compound]

IC50 [2]: 12000 nM
Molecule: EALYLVCGE

IC50 [5]: 406 nM
Molecule: LWMRLLPLLA

IC50 [1]: 209 nM
Molecule: SLYHVYEVNL [reference compound]

IC50 [4]: > 40000 nM
Molecule: YTPKTRREAE

IC50 [1]: 84 nM
Molecule: FMTSSWWRAPL [reference compound]

IC50 [1]: 1140 nM
Molecule: VLNSVASLL [reference compound]

IC50 [1]: 16900 nM
Molecule: SLYQLENYC [reference compound]

IC50 [1]: 8.1 nM
Molecule: LLIDLTSFL [reference compound]

IC50 [2]: 7990 nM
Molecule: NQHLCGSHLV

IC50 [1]: 143 nM
Molecule: LMFWSPSHSCA [reference compound]

IC50 [1]: 39 nM
Molecule: ILKDFSILL [reference compound]

IC50 [3]: > 40000 nM
Molecule: CC(C)C[C@H](NC(=O)[C@H](Cc1c[nH]cn1)NC(=O)[C@@H](N)CCC(N)=O)C(=O)N[C@@H](CS(=O)(=O)O)C(=O)NCC(=O)N[C@@H](CO)C(=O)N[C@@H](Cc1c[nH]cn1)C(=O)N[C@@H](CC(C)C)C(=O)N[C@H](C(=O)N[C@@H](CCC(=O)O)C(=O)O)C(C)C [QHLBGSHLVE] (H-QHL[Cya]GSHLVE-OH; N-terminus and C-terminus assumed)

IC50 [1]: 1760 nM
Molecule: SVASLLPHV [reference compound]

IC50 [3]: > 40000 nM
Molecule: CC(C)C[C@H](NC(=O)[C@H](Cc1c[nH]cn1)NC(=O)CC[C@H](NC(=O)C[C@H](NC(=O)[C@@H](NC(=O)[C@@H](N)Cc1ccccc1)C(C)C)C(=O)O)C(=O)O)C(=O)N[C@@H](CS)C(=O)NCC(=O)N[C@@H](CO)C(=O)N[C@@H](Cc1c[nH]cn1)C(=O)O [FVOZHLCGSH] (H-FV[βAsp][γGlu]HLCGSH-OH; N-terminus and C-terminus assumed)

IC50 [6]: 26300 nM
Molecule: CGERGYFYT

IC50 [6]: 83 nM
Molecule: CC(C)C[C@H](NC(=O)[C@H](CC(C)C)NC(=O)[C@H](C)NC(=O)[C@H](CC(C)C)NC(=O)[C@H](CC(C)C)NC(=O)[C@@H]1CCCN1C(=O)[C@H](CC(C)C)NC(=O)[C@H](CC(C)C)NC(=O)[C@@H](N)CCCNC(N)=O)C(=O)O (H-[Cit]LLPLLALL-OH)

IC50 [1]: 67 nM
Molecule: NLAQDLATV [reference compound]

IC50 [4]: > 40000 nM
Molecule: TRREAEDLQV

IC50 [6]: 148 nM
Molecule: CSCC[C@H](NC(=O)[C@H](Cc1c[nH]c2ccccc12)NC(=O)[C@@H](N)CC(C)C)C(=O)N[C@@H](CCCNC(N)=O)C(=O)N[C@@H](CC(C)C)C(=O)N[C@@H](CC(C)C)C(=O)N1CCC[C@H]1C(=O)N[C@@H](CC(C)C)C(=O)N[C@@H](CC(C)C)C(=O)O (H-LWM[Cit]LLPLL-OH)

IC50 [6]: 28300 nM
Molecule: C[C@@H](O)[C@H](NC(=O)[C@H](CCCCN)NC(=O)[C@@H]1CCCN1C(=O)[C@@H](NC(=O)[C@H](Cc1ccc(O)cc1)NC(=O)[C@H](Cc1ccccc1)NC(=O)[C@@H](N)Cc1ccccc1)[C@@H](C)O)C(=O)N[C@@H](CCCNC(N)=O)C(=O)N[C@@H](CCCNC(N)=O)C(=O)N[C@@H](CCC(=O)O)C(=O)O (H-FFYTPKT[Cit][Cit]E-OH)

IC50 [3]: > 40000 nM
Molecule: CC[C@H](C)[C@H](NC(=O)CNC(=O)[C@H](CCCNC(N)=O)NC(=O)[C@H](CCCCN)NC(=O)[C@H](CCC(N)=O)NC(=O)[C@H](CC(C)C)NC(=O)[C@@H](N)CO)C(=O)N[C@H](C(=O)N[C@@H](CCC(=O)O)C(=O)N[C@@H](CCC(N)=O)C(=O)O)C(C)C (H-SLQK[Cit]GIVEQ-OH; N-terminus and C-terminus assumed)
